Target: EGFR (Homo sapiens, UniProt P00533)
Assay: mobility shift kinase assay (Caliper, FAM-labeled peptide)
Assay type: biochemical

Sequence of EGFR (P00533 25-1210): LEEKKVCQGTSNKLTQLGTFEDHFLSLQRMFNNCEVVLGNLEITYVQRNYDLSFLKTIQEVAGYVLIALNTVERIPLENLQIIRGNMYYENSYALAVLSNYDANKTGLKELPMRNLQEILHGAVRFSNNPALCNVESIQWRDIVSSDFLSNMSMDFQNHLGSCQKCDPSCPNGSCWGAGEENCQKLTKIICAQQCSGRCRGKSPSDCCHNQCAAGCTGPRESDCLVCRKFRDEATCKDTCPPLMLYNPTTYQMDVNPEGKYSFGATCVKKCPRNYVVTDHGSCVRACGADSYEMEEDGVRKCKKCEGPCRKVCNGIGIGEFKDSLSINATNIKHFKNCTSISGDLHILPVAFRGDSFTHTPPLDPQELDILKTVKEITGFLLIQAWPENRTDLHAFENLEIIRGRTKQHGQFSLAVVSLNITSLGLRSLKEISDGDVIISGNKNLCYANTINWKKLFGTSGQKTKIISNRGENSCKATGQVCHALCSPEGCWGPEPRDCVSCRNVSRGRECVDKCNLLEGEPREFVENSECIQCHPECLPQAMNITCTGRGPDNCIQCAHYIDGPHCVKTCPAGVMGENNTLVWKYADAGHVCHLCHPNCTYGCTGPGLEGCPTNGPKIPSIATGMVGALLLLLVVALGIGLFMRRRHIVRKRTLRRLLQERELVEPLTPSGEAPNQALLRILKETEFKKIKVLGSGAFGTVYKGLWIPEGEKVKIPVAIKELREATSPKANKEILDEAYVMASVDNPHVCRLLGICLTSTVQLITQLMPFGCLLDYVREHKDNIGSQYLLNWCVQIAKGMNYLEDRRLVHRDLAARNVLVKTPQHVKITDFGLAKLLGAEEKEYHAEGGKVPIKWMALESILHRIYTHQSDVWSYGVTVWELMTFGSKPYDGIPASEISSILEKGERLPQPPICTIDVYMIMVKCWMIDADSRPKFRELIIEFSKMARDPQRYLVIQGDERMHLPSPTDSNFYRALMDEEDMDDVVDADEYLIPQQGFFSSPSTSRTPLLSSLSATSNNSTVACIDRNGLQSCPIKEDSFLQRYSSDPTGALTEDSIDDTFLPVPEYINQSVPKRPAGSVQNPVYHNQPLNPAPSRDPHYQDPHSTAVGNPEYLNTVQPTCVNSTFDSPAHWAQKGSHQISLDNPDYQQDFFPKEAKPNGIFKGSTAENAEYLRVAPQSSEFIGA

- IC50: 56 nM
SMILES: Cc1cccc(Cl)c1NC(=O)Nc1ccc(-c2nc(NCCN(C)C)c3ccccc3n2)cc1 [5a, 1-(2-Chloro-6-methylphenyl)-3-(4-(4-((2-(dimethylamino)ethyl)amino)quinazolin-2-yl)phenyl)urea]

— publication PMC6273962, “Design, Synthesis and Structure-Activity Relationships of Novel Diaryl Urea Derivatives as Potential EGFR Inhibitors” (Molecules, 2016)
